Data taken from patent US5157032A, “Mixed ligand complexes and uses thereof as binding agents and probes to DNA” (The Trustees of Columbia University In The City of New York, priority 1990, dated 1992).

What was measured:
calf thymus DNA = assay: Equilibrium dialysis of racemic complexes against calf thymus DNA (Scatchard, dialysate CD); format: binding; conditions: in words
Description: Equilibrium Dialysis: Equlibrium dialysis of the reacemic metal complexes was perforemd against calf-thymus DNA using procedures described previously. (74) The buffer used was 5 mM Tris, 50 mM NaCl at pH 7.5. Samples were agitated on a shaker bath during equilibration which occurred after three to five days, as determined by control samples containing no DNA. After equilibration, volumes of liquid inside and outside the dialysis bags were determined (approximately 1 and 3 mls, respectively) and circular dichroism of the dialysate was meaxured on a Jasco J-40 spectropolarimeter. Final ruthenium concentration inside and outside the bags were measured by visible absorbance. Data anaylsis was performed on a VAX-780 using non-linear least squares analysis.
Equilibrium Dialysis: Equilibrium binding constants for the metal complexes with DNA may be determined classically by equilibrium dialysis. Calf thymus DNA was dialyzed against the series of mixed ligand complexes using a broad range of ruthenium concentrations. […] The results have been plotted according to Scatchard (88), where r is the ratio of bound metal to DNA-phosphate concentration, and cf is the concentration of free metal complex. The data were fit by non-linear least squares analysis to the McGhee and von Hippel equation (8945) governing random non-cooperative binding to a lattice,
where r is the ratio of bound concentration of ruthenium to the concentration of DNA-phosphate, cf is the concentration of ruthenium free in soltuion, Kb the intrinsic binding constant, and the integer /, which measures the degree of anti-cooperativeity, is the size of a binding site in base pairs. The curves shown reflect the best fit after variation of two parameters: the intrinsic binding constant, Kb, and binding stie size, /. For those complexes were cooperatively was observed, the equation (89) incorporating a cooperativity parameter was used.
Equilibrium dialysis experiments additionally offer the opportunity to examine any enantiomeric selectivities associated with binding. After dialysis of the DNA against the racemic mixture, optical activity observed in the dialysate refelects an enrichment in the dialysate in the less favored enantiomer. For most of the complexes, optical activity was found in the dialysate. Values for the extent of enantiomeric selectivity could not be quanitated in the absence of determinations of DE and assignments of absolute configuration. Assuming that the signs of the circular chroism in the ultraviolet ligand bands are the same for the these ligands as that for the parent phenanthroline complex, (90) we have assigned the absolute configuration of these complexes by comparison to spectra for enantiomers of Ru(phen)3^2+ and have compared levels of enantioselectivity qualitatively through measurements of circular dichroic intensity per rutheium bound. Based upon these assumptions, we find enantionmeric selectivities for the polyridyl complexes to reflect an enrichment in the isomer in the dialysate and the preferential binding of the isomer to the right-handed DNA. This observation is consistent with the preferential intercalation of isomers found earlier for Ru(phen)3^2+ in right-handed B-DNA. (63) We may also compare relative enantioselectivities for different ancillary ligands. […] The same comparison may be seen qualitatively between Ru(phen)2 DIP^2+ and Ru(bpy)2 DIP^2+.

Stability / handling = format: physicochemical; conditions: in words
[1] = system: electrophoresed DNA in agarose gel; assay: Staining of DNA in agarose gels; conditions: in words
From the text: One interesting application is the binding of this complex to DNA that has been electrophoresed in a agarose gel.

pBR322 DNA = conditions: reference intercalator; cited from earlier work
[2] = system: distamycin binding sites on end-labeled DNA fragment; assay: Footprinting of distamycin; conditions: in words
[3] = system: EcoRI site on end-labeled DNA fragment; assay: Footprinting of EcoRI; format: binding; conditions: in words
[4] = system: distamycin binding sites on end-labeled DNA fragment; conditions: comparison reagents; cited from earlier work

For `N=C1C(=N)c2ccccc2-c2ccccc21.N=C1C(=N)c2ccccc2-c2ccccc21.N=C1C(=N)c2ccccc2-c2ccccc21.[Ru+2]` [Ru(phi)3^2+], the aggregation in solution (calf thymus DNA) was “extensive aggregation” and the stability (Stability / handling) was “does not decompose upon exposure to air or by continuous irradiation with visible light”.
For `CC[n+]1c(-c2ccccc2)c2cc(N)ccc2c2ccc(N)cc21` [ethidium, reference compound], the “staining of DNA in agarose gels” value [1] is listed as “found to stain DNA imbedded in the agarose gels” and the Unwinding Angle (pBR322 DNA) is listed as 26 °.
For `[Cu+].c1cnc2c(c1)ccc1cccnc12.c1cnc2c(c1)ccc1cccnc12` [Cu(phen)2 +], the “footprint quality, distamycin” value [2] is listed as “lacks the necessary sequence neutrality”, the “footprint quality, EcoRI” value [3] is listed as “failed to footprint the protein” and the “3'-shift of distamycin footprint” value [4] is listed as 2-3 pair.
